One may read the IC50 as the midpoint of a concentration-inhibition curve. A low value points to greater potency.

We go through 23 compounds from US8324222B2, “Cyclically substituted furopyrimidine derivatives and use thereof” (Bayer Intellectual Property GmbH, priority 2005, dated 2012).

Data set [1] deals with T1, prostacyclin receptors (IP receptors) of human thrombocyte membranes (Homo sapiens, UniProt P43119).
T1 construct: 300-1000 μg/ml human thrombocyte membranes per charge; tissue Maco Pharma, Langen (buffy coats); host or cells: human thrombocyte (platelet) membranes prepared from human blood buffy coats
Put plainly: Binding to prostacyclin receptors (IP receptors) of human thrombocyte membranes (3H-Iloprost displacement). The note with it: 3 nM 3H-Iloprost, 60 min, room temperature. As to the method: B-1. Studies of Binding to Prostacyclin Receptors (IP Receptors) of Human Thrombocyte Membranes
Thrombocyte membranes are obtained by centrifuging 50 ml human blood (Buffy coats with CDP Stabilizer, from Maco Pharma, Langen) for 20 min at 160×g. Remove the supernatant (platelet-rich plasma, PRP) and then centrifuge again at 2000×g for 10 min at room temperature. Resuspend the sediment in 50 mM tris-(hydroxymethyl)-aminomethane, which has been adjusted to a pH of 7.4 with 1 N hydrochloric acid, and store at −20° C. overnight. On the next day, centrifuge the suspension at 80000×g and 4° C. for 30 minDiscard the supernatant. Resuspend the sediment in 50 mM tris-(hydroxymethyl)-aminomethane/hydrochloric acid, 0.25 mM ethylene diamine tetraacetic acid (EDTA), pH 7.4, and then centrifuge once again at 80000×g and 4° C. for 30 min. Take up the membrane sediment in binding buffer (50 mM tris-(hydroxymethyl)-aminomethane/hydrochloric acid, 5 mM magnesium chloride, pH 7.4) and store at −70° C. until the binding test.
For the binding test, incubate 3.nM ^3H-Iloprost (592 GBq/mmol, from AmershamBioscience) for 60 min with 300-1000 μg/ml human thrombocyte membranes per charge (max. 0.2 ml) in the presence of the test substances at room temperature. After stopping, add cold binding buffer to the membranes and wash with 0.1% bovine serum albumin. After adding Ultima Gold Scintillator, quantify the radioactivity bound to the membranes using a scintillation counter. The nonspecific binding is defined as radioactivity in the presence of 1 μM Iloprost (from Cayman Chemical, Ann Arbor) and is as a rule <25% of the bound total radioactivity. The binding data (IC50 values) are determined using the program GraphPad Prism Version 3.02.

The conditions of data set [2]: rapid non-enzymatic transformation to inactive metabolite 6-keto-prostaglandin-F1alpha; cited from earlier work.

T1 sequence (P43119 whole entry): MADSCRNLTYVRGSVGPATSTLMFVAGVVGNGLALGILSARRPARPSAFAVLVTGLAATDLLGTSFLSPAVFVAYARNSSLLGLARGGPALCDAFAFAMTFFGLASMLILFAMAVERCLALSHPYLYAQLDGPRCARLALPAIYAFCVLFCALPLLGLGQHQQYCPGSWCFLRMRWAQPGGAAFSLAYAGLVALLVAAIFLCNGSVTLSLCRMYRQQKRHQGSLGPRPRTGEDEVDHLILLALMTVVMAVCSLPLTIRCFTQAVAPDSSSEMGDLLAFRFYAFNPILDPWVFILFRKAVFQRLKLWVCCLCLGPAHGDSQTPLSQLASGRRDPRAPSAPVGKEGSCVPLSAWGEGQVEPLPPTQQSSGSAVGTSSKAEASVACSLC

As for `CCc1ccc(-c2c(-c3ccccc3F)oc3ncnc(O[C@@H]4CCCN(CCCC(=O)O)C4)c23)cc1` [Example 181, 4-[(3R)-3-{[5-(4-Ethylphenyl)-6-(2-fluorophenyl)furo[2,3-d]pyrimidin-4-yl]oxy}piperidin-1-yl]-butyric acid], the 50% inhibitory concentration (IC50) in data set [1] worked out at 27 nM. In data set [1], `CCc1ccc(-c2c(-c3ccccc3)oc3ncnc(N[C@H]4CCC[C@H](OCC(=O)O)C4)c23)cc1` (racemic) [Example 146] came in with an IC50 of 20 nM.

For the compound `COc1ccc(-c2c(-c3ccccc3)oc3ncnc(O[C@H]4CCC[C@H](OCC(=O)O)C4)c23)cc1` (racemic) [Example 69], the IC50 in data set [1] stood at 8 nM. `CCc1ccc(-c2c(-c3ccccc3)oc3ncnc(O[C@@H]4C=C[C@@H](OCC(=O)O)C4)c23)cc1` [Example 175] came in with a half-inhibitory concentration (IC50) in data set [1] of 13 nM. Compound `COC(=O)COc1cccc(Nc2ncnc3oc(-c4ccccc4)c(-c4ccc(OC)cc4)c23)c1` [Example 9, 3-{[5-(4-methoxyphenyl)-6-phenylfuro[2,3-d]pyrimidin-4-yl]amino}phenoxyacetic acid methyl ester] returned an IC50 in data set [1] of 43 nM. Against the preceding compound, the IC50 is about 3.3-fold higher. As for `CCc1ccc(-c2c(-c3ccccc3)oc3ncnc(O[C@@H]4CCCN(CCCC(=O)O)C4)c23)cc1F` (single isomer, unassigned) [Example 159], the half-inhibitory concentration (IC50) in data set [1] came out at 83 nM.

`COc1ccc(-c2c(-c3ccccc3)oc3ncnc(O[C@H]4CC[C@H](OCC(=O)O)C4)c23)cc1` [Example 162] yielded a half-inhibitory concentration (IC50) in data set [1] of 37 nM. Same read-out and setting: the same measure for `COc1ccc(-c2c(-c3ccccc3)oc3ncnc(Nc4cccc(OCC(=O)O)c4)c23)cc1` [Example 10, 3-{[5-(4-Methoxyphenyl)-6-phenylfuro[2,3-d]pyrimidin-4-yl]amino}phenoxyacetic acid]: 18 nM. Turning to `COc1ccc(-c2c(-c3ccccc3)oc3ncnc(Nc4cccc(/C=C/C(=O)O)c4)c23)cc1` [Example 21, (2E)-3-(3-{[5-(4-Methoxyphenyl)-6-phenylfuro[2,3-d]pyrimidin-4-yl]amino}phenyl)acrylic acid], the half-inhibitory concentration (IC50) in data set [1] stood at 11 nM. Compared with the last compound, the IC50 is about 1.6-fold lower.

`COc1ccc(-c2c(-c3ccccc3)oc3ncnc(O[C@@H]4CCCN(CCc5nnn[nH]5)C4)c23)cc1` [Example 99]: the IC50 in data set [1] worked out at 34 nM. This IC50 is about 3.1-fold higher than that of the compound before. For the compound `COc1ccc(-c2c(-c3ccccc3)oc3ncnc(N[C@H]4CC[C@@H](OCC(=O)O)C4)c23)cc1` [Example 168], the IC50 in data set [1] is 71 nM. This IC50 is about 2.1-fold higher than that of the compound before. In data set [1], `COc1ccc(-c2c(-c3ccccc3)oc3ncnc(O[C@H]4CCC[C@@H](OCC(=O)O)C4)c23)cc1` (single isomer, unassigned) [Example 67] showed a half-maximal inhibitory concentration (IC50) of 388 nM. Against the preceding compound, the IC50 is about 5.5-fold higher. For the compound `COC(=O)CCCN1CCC[C@@H](Oc2ncnc3oc(-c4ccccc4F)c(-c4ccc(OC)cc4)c23)C1` [Example 183, 4-[(3R)-3-{[6-(2-Fluorophenyl)-5-(4-methoxyphenyl)furo[2,3-d]pyrimidin-4-yl]oxy}piperidin-1-yl]butyric acid methyl ester], in data set [1], the IC50 was found to be 218 nM. This IC50 is about 1.8-fold lower than that of the compound before.

Consider `CCCCC[C@H](O)/C=C/[C@@H]1[C@H]2C/C(=C/CCCC(=O)O)O[C@H]2C[C@H]1O` [PGI2, Prostacyclin], for which, in data set [2], the half-life result was “approx. 3 minutes”. As for `COc1ccc(-c2c(-c3ccccc3)oc3ncnc(O[C@H]4CCC[C@@H](OCC(=O)O)C4)c23)cc1` (single isomer, unassigned) [Example 68], the concentration for half-maximal inhibition (IC50) in data set [1] amounted to 34 nM. Same read-out and setting: the same measure for `COc1ccc(-c2c(-c3ccccc3)oc3ncnc(N[C@@H]4CC[C@@H](OCC(=O)O)C4)c23)cc1` [Example 170]: 6 nM; for `COc1ccc(-c2c(-c3ccccc3)oc3ncnc(N[C@H]4CCC[C@H](OCC(=O)O)C4)c23)cc1` [Example 87]: 17 nM; for `CCc1ccc(-c2c(-c3ccccc3)oc3ncnc(N[C@@H]4C=C[C@@H](OCC(=O)O)C4)c23)cc1` [Example 176]: 24 nM. Consider `O=C(O)CO[C@@H]1CCC[C@H](Oc2ncnc3oc(-c4ccccc4)c(-c4ccc(Cl)cc4)c23)C1` [Example 156], for which the IC50 in data set [1] was determined as 293 nM.

In turn, `O=C(O)COc1cccc(Nc2ncnc3oc(-c4ccccc4)c(-c4ccc(F)cc4)c23)c1` [Example 6, 3-{[5-(4-Fluorophenyl)-6-phenylfuro[2,3-d]pyrimidin-4-yl]amino}phenoxyacetic acid] showed a half-maximal inhibitory concentration (IC50) in data set [1] of 237 nM. The IC50 values of the last two compounds are within 1.5-fold of each other. In data set [1], `COc1ccc(-c2c(-c3ccccc3)oc3ncnc(Oc4ccc(CCC(=O)O)cc4)c23)cc1` [Example 24, 3-(4-{[5-(4-Methoxyphenyl)-6-phenylfuro[2,3-d]pyrimidin-4-yl]oxy}phenyl)propanoic acid] registered an IC50 of 15 nM.

`CCc1ccc(-c2c(-c3ccccc3)oc3ncnc(O[C@@H]4CCCN(CCCC(=O)O)C4)c23)cc1` [Example 154]: the IC50 in data set [1] came to 28 nM. In data set [1], `COc1ccc(-c2c(-c3ccccc3)oc3ncnc(OC4CCCN(CCCC(=O)O)C4)c23)cc1` (centres unmarked) [Example 84] showed a half-inhibitory concentration (IC50) of 152 nM.
